Test results taken from BindingDB's records for doi:10.1021/jm00078a018 (Merck Research Laboratories, 1994).
Counter-ions that a name gives are not always drawn.

Experiment: Inhibition of binding of [125I]-CCK-8 to the cholecystokinin type B receptor

| SMILES | IC50 |
| --- | --- |
| COc1cccc(NC(=O)NC2N=C(c3ccccc3)c3ccccc3N(CC(=O)N3CCCC3)C2=O)c1 (configuration not stated) [1-(3-Methoxy-phenyl)-3-[2-oxo-1-(2-oxo-2-pyrrolidin-1-yl-ethyl)-5-phenyl-2,3-dihydro-1H-benzo[e][1,4]diazepin-3-yl]-urea] | 0.24 nM |
| COc1cccc(NC(=O)NC2N=C(c3ccccc3)c3ccccc3N(CC(=O)N3CCN(C)CC3)C2=O)c1 (configuration not stated) [1-(3-Methoxy-phenyl)-3-{1-[2-(4-methyl-piperazin-1-yl)-2-oxo-ethyl]-2-oxo-5-phenyl-2,3-dihydro-1H-benzo[e][1,4]diazepin-3-yl}-urea] | 4.4 nM |
| CN1C(=O)C(NC(=O)Nc2ccc(Br)cc2)N=C(c2ccccc2)c2ccccc21 (configuration not stated) [1-(4-Bromo-phenyl)-3-(1-methyl-2-oxo-5-phenyl-2,3-dihydro-1H-benzo[e][1,4]diazepin-3-yl)-urea] | 48 nM |
| O=C(Nc1ccc(Cl)cc1)NC1N=C(c2ccccc2)c2ccccc2NC1=O (configuration not stated) [1-(4-Chloro-phenyl)-3-(2-oxo-5-phenyl-2,3-dihydro-1H-benzo[e][1,4]diazepin-3-yl)-urea] | 270 nM |
| CN1C(=O)[C@H](NC(=O)Nc2ccc(Cl)cc2)N=C(c2ccccc2)c2ccccc21 [1-(4-Chloro-phenyl)-3-((R)-1-methyl-2-oxo-5-phenyl-2,3-dihydro-1H-benzo[e][1,4]diazepin-3-yl)-urea] | 20 nM |
| CN1C(=O)[C@@H](NC(=O)Nc2ccc(Cl)cc2)N=C(c2ccccc2)c2ccccc21 [1-(4-Chloro-phenyl)-3-((S)-1-methyl-2-oxo-5-phenyl-2,3-dihydro-1H-benzo[e][1,4]diazepin-3-yl)-urea] | 1100 nM |
| O=C(Nc1ccc(Cl)cc1)NC1N=C(c2ccccc2)c2ccccc2N(C[C@@H](O)CO)C1=O (some centres not stated) [1-(4-Chloro-phenyl)-3-[1-(2,3-dihydroxy-propyl)-2-oxo-5-phenyl-2,3-dihydro-1H-benzo[e][1,4]diazepin-3-yl]-urea] | 104 nM |
| O=C(Nc1ccc(Cl)cc1)NC1N=C(c2ccccc2)c2ccccc2N(C[C@@H](O)CN2CCCC2)C1=O (some centres not stated) [1-(4-Chloro-phenyl)-3-[1-(2-hydroxy-3-pyrrolidin-1-yl-propyl)-2-oxo-5-phenyl-2,3-dihydro-1H-benzo[e][1,4]diazepin-3-yl]-urea] | 300 nM |
| CCN(CC)C[C@H](O)CN1C(=O)C(NC(=O)Nc2ccc(Cl)cc2)N=C(c2ccccc2)c2ccccc21 (some centres not stated) [1-(4-Chloro-phenyl)-3-[1-(3-diethylamino-2-hydroxy-propyl)-2-oxo-5-phenyl-2,3-dihydro-1H-benzo[e][1,4]diazepin-3-yl]-urea] | 410 nM |
| O=C(Nc1ccc(Cl)cc1)NC1N=C(c2ccccc2)c2ccccc2N(Cc2nnn[nH]2)C1=O (configuration not stated) [1-(4-Chloro-phenyl)-3-[2-oxo-5-phenyl-1-(1H-tetrazol-5-ylmethyl)-2,3-dihydro-1H-benzo[e][1,4]diazepin-3-yl]-urea] | 490 nM |
| CN1CCN(C(=O)CN2C(=O)C(NC(=O)Nc3ccc(Cl)cc3)N=C(c3ccccc3)c3ccccc32)CC1 (configuration not stated) [1-(4-Chloro-phenyl)-3-{1-[2-(4-methyl-piperazin-1-yl)-2-oxo-ethyl]-2-oxo-5-phenyl-2,3-dihydro-1H-benzo[e][1,4]diazepin-3-yl}-urea] | 0.8 nM |
| CN1C(=O)C(NC(=O)Nc2ccc(F)cc2)N=C(c2ccccc2)c2ccccc21 (configuration not stated) [1-(4-Fluoro-phenyl)-3-(1-methyl-2-oxo-5-phenyl-2,3-dihydro-1H-benzo[e][1,4]diazepin-3-yl)-urea] | 66 nM |
| COc1ccc(NC(=O)NC2N=C(c3ccccc3)c3ccccc3N(C)C2=O)cc1 (configuration not stated) [1-(4-Methoxy-phenyl)-3-(1-methyl-2-oxo-5-phenyl-2,3-dihydro-1H-benzo[e][1,4]diazepin-3-yl)-urea] | 26 nM |
| CN1C(=O)C(NC(=O)Nc2ccc(N)nc2)N=C(c2ccccc2)c2ccccc21 (configuration not stated) [1-(6-Amino-pyridin-3-yl)-3-(1-methyl-2-oxo-5-phenyl-2,3-dihydro-1H-benzo[e][1,4]diazepin-3-yl)-urea] | 500 nM |
| CN1C(=O)C(NC(=O)Nc2ccc(Cl)nc2)N=C(c2ccccc2)c2ccccc21 (configuration not stated) [1-(6-Chloro-pyridin-3-yl)-3-(1-methyl-2-oxo-5-phenyl-2,3-dihydro-1H-benzo[e][1,4]diazepin-3-yl)-urea] | 46 nM |
| COc1ccc(NC(=O)NC2N=C(c3ccccc3)c3ccccc3N(C)C2=O)cn1 (configuration not stated) [1-(6-Methoxy-pyridin-3-yl)-3-(1-methyl-2-oxo-5-phenyl-2,3-dihydro-1H-benzo[e][1,4]diazepin-3-yl)-urea] | 460 nM |
| CN1C(=O)C(NC(=O)Nc2ccc3c(c2)OCO3)N=C(c2ccccc2)c2ccccc21 (configuration not stated) [1-Benzo[1,3]dioxol-5-yl-3-(1-methyl-2-oxo-5-phenyl-2,3-dihydro-1H-benzo[e][1,4]diazepin-3-yl)-urea] | 26 nM |
| CN1C(=O)C(NC(=O)NCc2ccccc2)N=C(c2ccccc2)c2ccccc21 (configuration not stated) [1-Benzyl-3-(1-methyl-2-oxo-5-phenyl-2,3-dihydro-1H-benzo[e][1,4]diazepin-3-yl)-urea] | 860 nM |
| CN1C(=O)C(NC(=O)Nc2cccc(-c3ccccc3)c2)N=C(c2ccccc2)c2ccccc21 (configuration not stated) [1-Biphenyl-3-yl-3-(1-methyl-2-oxo-5-phenyl-2,3-dihydro-1H-benzo[e][1,4]diazepin-3-yl)-urea] | 112 nM |

| SMILES | IC50 |
| --- | --- |
| CN1C(=O)C(NC(=O)NC2CCCCC2)N=C(c2ccccc2)c2ccccc21 (configuration not stated) [1-Cyclohexyl-3-(1-methyl-2-oxo-5-phenyl-2,3-dihydro-1H-benzo[e][1,4]diazepin-3-yl)-urea] | 3000 nM |
| CN1C(=O)C(NC(=O)Nc2ccc3c(c2)CCC3)N=C(c2ccccc2)c2ccccc21 (configuration not stated) [1-Indan-5-yl-3-(1-methyl-2-oxo-5-phenyl-2,3-dihydro-1H-benzo[e][1,4]diazepin-3-yl)-urea] | 2.7 nM |
| Cc1cccc(NC(=O)NC2N=C(c3ccccc3)c3ccccc3N(Cc3ncc[nH]3)C2=O)c1 (configuration not stated) [1-[1-(1H-Imidazol-2-ylmethyl)-2-oxo-5-phenyl-2,3-dihydro-1H-benzo[e][1,4]diazepin-3-yl]-3-m-tolyl-urea] | 59 nM |
| Cc1cccc(NC(=O)NC2N=C(c3ccccc3)c3ccccc3N(Cc3cnc[nH]3)C2=O)c1 (configuration not stated) [1-[1-(1H-Imidazol-4-ylmethyl)-2-oxo-5-phenyl-2,3-dihydro-1H-benzo[e][1,4]diazepin-3-yl]-3-m-tolyl-urea] | 7.9 nM |
| COc1cccc(NC(=O)NC2N=C(c3ccccc3)c3ccccc3N(CCN(C)C)C2=O)c1 (configuration not stated) [1-[1-(2-Dimethylamino-ethyl)-2-oxo-5-phenyl-2,3-dihydro-1H-benzo[e][1,4]diazepin-3-yl]-3-(3-methoxy-phenyl)-urea] | 192 nM |
| Cc1cccc(NC(=O)NC2N=C(c3ccccc3)c3ccccc3N(CCN(C)C)C2=O)c1 (configuration not stated) [1-[1-(2-Dimethylamino-ethyl)-2-oxo-5-phenyl-2,3-dihydro-1H-benzo[e][1,4]diazepin-3-yl]-3-m-tolyl-urea] | 26 nM |
| Cc1cccc(NC(=O)NC2N=C(c3ccccc3)c3ccccc3N(CCO)C2=O)c1 (configuration not stated) [1-[1-(2-Hydroxy-ethyl)-2-oxo-5-phenyl-2,3-dihydro-1H-benzo[e][1,4]diazepin-3-yl]-3-m-tolyl-urea] | 44 nM |
| O=C(Nc1ccc(Cl)cc1)NC1N=C(c2ccccc2)c2ccccc2N(C[C@@H](O)CCl)C1=O (some centres not stated) [1-[1-(3-Chloro-2-hydroxy-propyl)-2-oxo-5-phenyl-2,3-dihydro-1H-benzo[e][1,4]diazepin-3-yl]-3-(4-chloro-phenyl)-urea] | 6 nM |
| Cc1cccc(NC(=O)NC2N=C(c3ccccc3)c3ccccc3N(Cc3nnc(C)[nH]3)C2=O)c1 (configuration not stated) [1-[1-(5-Methyl-4H-[1,2,4]triazol-3-ylmethyl)-2-oxo-5-phenyl-2,3-dihydro-1H-benzo[e][1,4]diazepin-3-yl]-3-m-tolyl-urea] | 9.7 nM |
| CN1C(=O)C(NC(=O)NCc2cccc(C(C)(C)O)c2)N=C(c2ccccc2)c2ccccc21 (configuration not stated) [1-[3-(1-Hydroxy-1-methyl-ethyl)-benzyl]-3-(1-methyl-2-oxo-5-phenyl-2,3-dihydro-1H-benzo[e][1,4]diazepin-3-yl)-urea] | 5.9 nM |
| CN1C(=O)C(NC(=O)NC(C)(C)C)N=C(c2ccccc2)c2ccccc21 (configuration not stated) [1-tert-Butyl-3-(1-methyl-2-oxo-5-phenyl-2,3-dihydro-1H-benzo[e][1,4]diazepin-3-yl)-urea] | 38000 nM |
| Cc1cccc(NC(=O)NC2N=C(c3ccccc3)c3ccccc3N(CC(=O)N3CCN(C)CC3)C2=O)c1 (configuration not stated) [1-{1-[2-(4-Methyl-piperazin-1-yl)-2-oxo-ethyl]-2-oxo-5-phenyl-2,3-dihydro-1H-benzo[e][1,4]diazepin-3-yl}-3-m-tolyl-urea; hydrochloride] | 3.5 nM |
| Cc1cccc(NC(=O)NC2N=C(c3ccccc3)c3ccccc3N(CC(=O)ON3CCC[C@@H]3C(=O)O)C2=O)c1 (some centres not stated) [1-{2-[2-Oxo-5-phenyl-3-(3-m-tolyl-ureido)-2,3-dihydro-benzo[e][1,4]diazepin-1-yl]-acetoxy}-pyrrolidine-2-carboxylic acid] | 130 nM |
| Cc1cccc(NC(=O)NC2N=C(c3ccccc3)c3ccccc3N(CC(=O)Nc3ccncc3)C2=O)c1 (configuration not stated) [2-[2-Oxo-5-phenyl-3-(3-m-tolyl-ureido)-2,3-dihydro-benzo[e][1,4]diazepin-1-yl]-N-pyridin-4-yl-acetamide] | 48 nM |
| Cc1ccc(NC(=O)NC2N=C(c3ccccc3)c3ccccc3N(CC(=O)Nc3ccncc3)C2=O)cc1 (configuration not stated) [2-[2-Oxo-5-phenyl-3-(3-p-tolyl-ureido)-2,3-dihydro-benzo[e][1,4]diazepin-1-yl]-N-pyridin-4-yl-acetamide] | 190 nM |
| CCN(CC)C(=O)CN1C(=O)C(NC(=O)Nc2ccccc2Cl)N=C(c2ccccc2)c2ccccc21 (configuration not stated) [2-{3-[3-(2-Chloro-phenyl)-ureido]-2-oxo-5-phenyl-2,3-dihydro-benzo[e][1,4]diazepin-1-yl}-N,N-diethyl-acetamide] | 3.8 nM |
| CCN(CC)C(=O)CN1C(=O)C(NC(=O)Nc2ccc(Cl)cc2)N=C(c2ccccc2)c2ccccc21 (configuration not stated) [2-{3-[3-(4-Chloro-phenyl)-ureido]-2-oxo-5-phenyl-2,3-dihydro-benzo[e][1,4]diazepin-1-yl}-N,N-diethyl-acetamide] | 0.6 nM |
| CCN(CC)C(=O)C(C)N1C(=O)C(NC(=O)Nc2ccc(Cl)cc2)N=C(c2ccccc2)c2ccccc21 (configuration not stated) [2-{3-[3-(4-Chloro-phenyl)-ureido]-2-oxo-5-phenyl-2,3-dihydro-benzo[e][1,4]diazepin-1-yl}-N,N-diethyl-propionamide] | 22 nM |
